Test [1] addresses T1, non-mutated anti-RAS scFv / HRAS^G12V interaction (Homo sapiens, UniProt P01112, G12V).
T1 construct: made in house; host or cells: E. coli C41(DE3)
In words: Alpha assay of non-mutated anti-RAS scFv with HRAS^G12V (identical protocol, unpublished data). Format: biochemical. The text has this:
We have used the RAS protein as a target for this method as this was previously regarded as undruggable[9]–[11]. We provide further evidence of RAS druggability and that antibody binding sites can be employed to select small molecules for drug discovery as starting chemical matter for medicinal chemistry drug development campaigns. Compound A (Fig. 3A) is a heterocycle that would require crystal soaking to facilitate structure-based drug design to place this on a formal drug development programme. […] Further, the low Kd in SPR (Fig. 4), lack of inhibitory effect in Alpha controls (Fig. 3) argue against chemical reactivity as the reason for the Alpha assay inhibition. […] The low binding strength of these initial library hits, in turn resulting from the small size of the chemical library used, would preclude meaningful cell-assays at this stage.

For test [2], the target named is T2, HRAS^G12V-GTP / scFv RASdm interaction (Homo sapiens, UniProt P01112, G12V).
T2 construct: made in house; host or cells: E. coli C41(DE3)
T2 sequence (P01112 whole entry G12V): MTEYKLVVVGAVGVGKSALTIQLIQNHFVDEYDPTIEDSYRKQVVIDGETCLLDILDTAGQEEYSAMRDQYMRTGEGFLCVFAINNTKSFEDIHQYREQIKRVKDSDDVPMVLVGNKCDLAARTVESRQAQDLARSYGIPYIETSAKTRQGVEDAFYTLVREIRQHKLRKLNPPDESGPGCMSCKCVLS
The experiment in a line: AlphaScreen of interaction between GST-HRAS^G12V-GTPγS and His-tagged scFv RASdm. The test is classed as biochemical. The following applies: dose-response Alpha assay. The source says:
An AlphaScreen assay was established with GST-HRAS^G12V-GTP bound to GST-beads and HIS-tagged scFv RASdm bound to nickel-beads. The Alpha assay comprised interaction of anti-RAS and HRAS proteins and signal from the acceptor beads generated after excitation of the donor nickel-beads (depicted in Supplementary Fig. 3A). […] The interactions were optimized for protein concentrations linked to the donor and acceptor beads (Supplementary Fig. 3C,D). The interaction of HRAS^G12V-GTP with the dematured anti-RAS scFv was robust (Supplementary Fig. 3D) yielding Z factors of 0.74–0.85 being considered suitable for high throughput screen. […]
The AlphaScreen assay (Perkin Elmer) was performed in a 8 μl final volume in 1536-well white microtiter plates (Greiner). […] Exposure of the reaction to direct light was avoided and the emission of light from the acceptor beads was measured in the EnVision plate reader (Perkin Elmer) and analyzed using the EnVision manager software. […]
Panel A: AlphaLISA glutathione (GSH) acceptor beads were used to capture GST-HRAS loaded with GTPγS (Ag). […] Following incubation, nickel (Ni) chelate donor AlphaLISA beads were added and the chemiluminescence signal detected on an PE Envision plate reader. […]

The next test relates to dopamine D1 receptor. The note with it: cited from earlier work.
The test system of test [3] is KRAS, HRAS and NRAS-GTP proteins. In words: SPR over the three RAS isoforms (average / overall).
Procedure: Accordingly, we used SPR to determine direct RAS-binding and because the anti-RAS intracellular antibody interacts with the three isoforms of activated RAS[3], we assessed if the compounds also show a pan-RAS binding.
The protein extracts were loaded with GPPNHP (a non-hydrolysable GTP analogue) as described[19] and biotinylated by incubation with BirA overnight at 4 °C. […] SPR experiments were performed using BIAcore T100 (GE Healthcare). […] The chip was prepared with 3 × 30 s injections of 1 M NaCl/50 mM NaOH at 10 µL/min flow rate, before biotinylated RAS proteins were injected at 25 µg/mL with 10 µL/min flow rate until 4000–5000 RU protein was captured.
A further test concerns the target HRAS-GPPNHP (Homo sapiens, UniProt P01112). The experiment in a line: SPR of compound on biotinylated RAS isoform (streptavidin chip). Format: binding.
The next test deals with KRAS^G12V-GPPNHP (Homo sapiens, UniProt P01116, G12V). The test is described as above. Format: binding.
A further test concerns the target NRAS-GPPNHP (Homo sapiens, UniProt P01111). The test is described as above. The test is classed as binding.

Sequence of NRAS-GPPNHP (P01111 1-166): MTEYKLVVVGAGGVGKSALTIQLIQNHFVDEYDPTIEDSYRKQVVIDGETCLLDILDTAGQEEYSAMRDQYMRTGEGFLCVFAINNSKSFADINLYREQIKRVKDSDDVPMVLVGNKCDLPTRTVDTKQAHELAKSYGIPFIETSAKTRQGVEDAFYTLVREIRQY
Sequence of HRAS-GPPNHP (P01112 1-166): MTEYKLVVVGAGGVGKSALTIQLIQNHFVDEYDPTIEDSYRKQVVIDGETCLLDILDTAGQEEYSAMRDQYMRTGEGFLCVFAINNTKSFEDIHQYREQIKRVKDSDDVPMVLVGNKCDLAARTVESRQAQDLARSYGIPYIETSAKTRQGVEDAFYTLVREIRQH
T1 sequence (P01112 whole entry G12V): as the sequence (P01112 whole entry G12V) above

One may read the IC50 as the midpoint of a concentration-inhibition curve. Read a low IC50 as greater potency. For `CCCn1c(=O)c2[nH]c(C3CCCC3)nc2n(CCCOC(=O)c2ccc(S(=O)(=O)F)cc2)c1=O` [Compound A, 8-Cyclopentyl-3-(3-((4-(fluorosulfonyl)benzoyl)oxy)propyl)-1-propylxanthine], the “inhibition of interaction between non-mutated anti-RAS scFv and HRAS^G12V” value in test [1] is recorded as “no inhibition”. For the same compound, half-maximal inhibition in test [2] (IC50) was put at 2 µM.

Broadly, the Kd is the equilibrium constant for the complex coming apart. Consider `CN1Cc2ccccc2C2c3cccc4[nH]cc(c34)CC21` (stereo not drawn) [compound B, 4,6,6a,7,8,12b-hexahydro-7-methylindolo(4,3-ab)-phenanthridine], for which the “dopamine D1 receptor activity” value in the test on dopamine D1 receptor was “weak dopamine D1 receptor agonist”. Also, the concentration for half-maximal inhibition (IC50) in test [2] was 6 µM. In test [3] (KRAS, HRAS and NRAS proteins), the “response in SPR analysis” value was “low response”. Besides, the Kd was found to be 37 µM in test [3] (read-out: average Kd, average over KRAS, HRAS and NRAS); 30 µM at HRAS-GPPNHP (HRAS); 47 µM at KRAS^G12V-GPPNHP (KRAS); 35 µM on NRAS-GPPNHP (NRAS). Also, the Rmax stood at 3.5 RU at HRAS-GPPNHP (Figure 4E), 6.7 RU at KRAS^G12V-GPPNHP (Figure 4D) and 6.8 RU on NRAS-GPPNHP (Figure 4F).
